In patent US4546176A, “7-Carboxymethoxyphenylacetamido-3-cephem derivatives and antibacterial preparations containing the same” (Eisai Co., Ltd., priority 1982, dated 1985):
Converted amounts (≈) assume the structure as drawn.

Tests used:
[1] = system: Escher. coli NIHJ; experiment: Antibacterial activities (MIC), Escher. coli NIHJ; format: cell-based; settings: Escherichia coli
Description: (§1) (1) Antibacterial activities (MIC):

[2] = system: Staph. aureus 209-P; experiment: Antibacterial activities (MIC), Staph. aureus 209-P; format: cell-based; settings: Staphylococcus aureus
Description: as §1

[3] = system: Ser. marcescens ES-75; experiment: Antibacterial activities (MIC), Ser. marcescens ES-75; format: cell-based; settings: Serratia marcescens, ES75
Description: as §1

[4] = system: Proteus morganii EP-14; experiment: Antibacterial activities (MIC), Proteus morganii EP-14; format: cell-based; settings: Morganella morganii, EP14
Description: as §1

[5] = system: Proteus vulgaris E-18; experiment: Antibacterial activities (MIC), Proteus vulgaris E-18 (lactamase producing); format: cell-based; settings: E18; Proteus vulgaris E-18, lactamase producing bacteria
Description: as §1
*Lactamase producing bacteria.

[6] = system: Kleb. pneumoniae EK-6; experiment: Antibacterial activities (MIC), Kleb. pneumoniae EK-6; format: cell-based; settings: Klebsiella pneumoniae, EK6
Description: as §1

[7] = Urinary excretion rate in mice; format: in vivo, ICR male mice; settings: mouse, sc, 20 mg/kg subcutaneous, urine up to 6 hours, bioassay
Procedure: ICR male mice (body weight: 20-30 g) were used. Each compound was dissolved in an M/15 phosphate buffer (pH 7.0) and administered in an amount of 20 mg/kg by the subcutaneous route. Urine was collected up to 6 hours after the administration. The concentration of the compound was determined by the bioassey technique (the agar-well method) using Pseudomonas aeruginosa as a test microorganism. On the basis of the thus-determined concentration, its excreted amount was obtained. The urinary excretion rate was then calculated from the excreted amount based on the amount administered.

[8] = system: Pseud. aeruginosa EP-01; experiment: Antibacterial activities (MIC), Pseud. aeruginosa EP-01; format: cell-based; settings: Pseudomonas aeruginosa, EP01
Description: as §1

[9] = Acute toxicity LD50 (mouse, oral); settings: in vivo
Description: The acute toxicity values [LD50 (mouse, oral)] of the following compounds were each 4 g/kg or greater;

[10] = Solubility in water; format: physicochemical; settings: in distilled water at 25° C.

SMILES	MIC [1] [µg/mL]	MIC [2] [µg/mL]	MIC [3] [µg/mL]	MIC [4] [µg/mL]	MIC [5] [µg/mL]	MIC [6] [µg/mL]	dose excreted at 6 h [7] [%]	MIC [8] [µg/mL]	LD50 [9] [mg/kg]	solubility [10] [mg/mL]
CO[C@@]1(NC(=O)[C@H](NC(=O)c2c(C)oc3c(O)c(O)ccc3c2=O)c2ccc(OCC(=O)O)cc2)C(=O)N2C(C(=O)O)=C(CSc3nnnn3CC(=O)O)CS[C@@H]21 [Example 28, Trisodium 7β-[D-2-(4-carboxymethoxyphenyl)-2-(7,8-dihydroxy-2-methyl-4-oxo-4H-1-benzopyran-3-carboxamido)-acetamido]-7α-methoxy-3-(1-carboxymethyl-5-tetrazolyl)-thiomethyl-3-cephem-4-carboxylate]	0.8	100	0.8	6.25	3.13	≤ 0.05	24	0.8		
CO[C@@]1(NC(=O)[C@H](NC(=O)c2coc3cc(O)c(O)cc3c2=O)c2ccc(OCC(=O)O)cc2)C(=O)N2C(C(=O)O)=C(CSc3nnnn3CC(=O)O)CS[C@@H]21 [Example 30, Trisodium 7β-[D-2-(4-carboxymethoxyphenyl)-2-(6,7-dihydroxy-4-oxo-4H-1-benzopyran-3-carboxamido)-acetamido]-7α-methoxy-3-(1-carboxymethyl-5-tetrazolyl)-thiomethyl-3-cephem-4-carboxylate]	0.8	100	0.2	6.25	0.8	≤ 0.05		0.4	≥ 4000	
CO[C@@]1(NC(=O)[C@H](NC(=O)c2c(C)oc3cc(O)c(O)cc3c2=O)c2ccc(OCC(=O)O)cc2)C(=O)N2C(C(=O)O)=C(CSc3nnnn3CC(=O)O)CS[C@@H]21 [Example 25]	0.4 (≈ 0.483 µM)	100 (≈ 121 µM)	0.1 (≈ 0.121 µM)	3.13 (≈ 3.78 µM)	0.4 (≈ 0.483 µM)	≤ 0.05	20	0.4 (≈ 0.483 µM)	≥ 4000	≥ 300
CO[C@@]1(NC(=O)[C@H](NC(=O)c2c(C)oc3cc(O)c(O)cc3c2=O)c2ccc(OCC(=O)O)cc2)C(=O)N2C(C(=O)[O-])=C(C[n+]3ccccc3)CS[C@@H]21 [Example 48, Sodium 7β-[D-2-(4-carboxymethoxyphenyl)-2-(6,7-dihydroxy-2-methyl-4-oxo-4H-1-benzopyran-3-carboxamido)acetamido]-7α-methoxy-3-pyridiniummethyl-3-cephem-4-carboxylate]	0.2	100	0.1	6.25	1.56	≤ 0.05	45	0.2	≥ 4000	≥ 300
CO[C@@]1(NC(=O)[C@H](NC(=O)c2c(C)oc3cc(O)c(O)cc3c2=O)c2ccc(OCC(=O)O)cc2)C(=O)N2C(C(=O)O)=C(COC(C)=O)CS[C@@H]21 [Example 33, Disodium 7β-[D-2-(4-carboxymethoxyphenyl)-2-(6,7-dihydroxy-2-methyl-4-oxo-4H-1-benzopyran-3-carboxamido)acetamido]-7α-methoxy-3-acetoxymethyl-3-cephem-4-carboxylate]	0.8	50	0.8	12.5	1.56	≤ 0.05		0.2		
CO[C@@]1(NC(=O)[C@H](NC(=O)c2c(C)oc3cc(OC(C)=O)c(OC(C)=O)cc3c2=O)c2ccc(OCC(=O)O)cc2)C(=O)N2C(C(=O)O)=C(CSc3nnnn3CC(=O)O)CS[C@@H]21 [Example 21]	0.4 (≈ 0.439 µM)	100 (≈ 110 µM)	0.1 (≈ 0.11 µM)	3.13 (≈ 3.43 µM)	0.4 (≈ 0.439 µM)	≤ 0.05		0.2 (≈ 0.219 µM)		
CO[C@@]1(NC(=O)[C@H](NC(=O)c2coc3cc(O)c(O)cc3c2=O)c2ccc(OCC(=O)O)cc2)C(=O)N2C(C(=O)[O-])=C(C[n+]3ccc(C(N)=O)cc3)CS[C@@H]21 [Example 51, Sodium 7β-[D-2-(4-carboxymethoxyphenyl)-2-(6,7-dihydroxy-4-oxo-4H-1-benzopyran-3-carboxamido)-acetamido]-7α-methoxy-3-(4-carbamoylpyridinium)-methyl-3-cephem-4-carboxylate]	1.56	50	0.8	25	3.13	≤ 0.05	16	0.4		≥ 300
CO[C@@]1(NC(=O)[C@H](NC(=O)c2coc3cc(O)c(O)cc3c2=O)c2ccc(OCC(=O)O)cc2)C(=O)N2C(C(=O)O)=C(COC(C)=O)CS[C@@H]21 [Example 31, 7β-[D-2-(4-Carboxymethoxyphenyl)-2-(6,7-dihydroxy-4-oxo-4H-1-benzopyran-3-carboxamido)acetamido]-7α-methoxy-3-acetoxymethyl-3-cephem-4-carboxylic acid]	0.8 (≈ 1.12 µM)	50 (≈ 70.1 µM)	0.4 (≈ 0.561 µM)	6.25 (≈ 8.76 µM)	1.56 (≈ 2.19 µM)	≤ 0.05		0.4 (≈ 0.561 µM)		
Cc1oc2cc(O)c(O)cc2c(=O)c1C(=O)N[C@@H](C(=O)N[C@@H]1C(=O)N2C(C(=O)O)=C(CSc3nnnn3CC(=O)O)CS[C@H]12)c1ccc(OCC(=O)O)cc1 [Example 15, Trisodium 7β-[D-2-(4-carboxymethoxyphenyl)-2-(6,7-dihydroxy-2-methyl-4-oxo-4H-1-benzopyran-3-carboxamido)acetamido]-3-(1-carboxymethyl-5-tetrazolyl)thiomethyl-3-cephem-4-carboxylate]	0.2	100	0.1	3.13		≤ 0.05	32	0.2	≥ 4000	≥ 300
CO[C@@]1(NC(=O)[C@H](NC(=O)c2c(C)oc3c(OC(C)=O)c(OC(C)=O)ccc3c2=O)c2ccc(OCC(=O)O)cc2)C(=O)N2C(C(=O)O)=C(CSc3nnnn3CC(=O)O)CS[C@@H]21 [Example 24, 7β-[D-2-(4-Carboxymethoxyphenyl)-2-(7,8-diacetoxy-2-methyl-4-oxo-4H-1-benzopyran-3-carboxamido)-acetamido]-7α-methoxy-3-(1-carboxymethyl-4-tetrazolyl)thiomethyl-3-cephem-4-carboxylic acid]	0.8 (≈ 0.877 µM)	100 (≈ 110 µM)	0.8 (≈ 0.877 µM)	12.5 (≈ 13.7 µM)	3.13 (≈ 3.43 µM)	≤ 0.05		0.8 (≈ 0.877 µM)		
CO[C@@]1(NC(=O)[C@H](NC(=O)c2c(C)oc3cc(O)c(O)cc3c2=O)c2ccc(OCC(=O)O)cc2)C(=O)N2C(C(=O)[O-])=C(C[n+]3ccc(C(N)=O)cc3)CS[C@@H]21 [Example 50, Sodium 7β-[D-2-(4-carboxymethoxyphenyl)-2-(6,7-dihydroxy-2-methyl-4-oxo-4H-1-benzopyran-3-carboxamido)acetamido]-7α-methoxy-3-(4-carbamoylpyridinium)methyl-3-cephem-4-carboxylate]	1.56	100	0.8	12.5	3.13	0.1		0.4	≥ 4000	≥ 300
